The text below walks through data of US5776903A, “Peptide derivatives usable as zinc endopeptidase 24-15 inhibitors” (Commissariat A l'Energie Atomique, priority 1995, dated 1998).

Assay [1] has as its target endopeptidase 24-15 (Rattus norvegicus, UniProt P24155). Nature of the assay: Inhibition of neurotensin degradation by purified endopeptidase 24-15 (HPLC), inhibition constant Ki. The conditions noted are these: for SELECTIVITY (ratio Ki24-16 /Ki24-15): selectivity relative to endopeptidase 24-16; for Ki expected for one of the diastereoisomers of the mixture: extrapolated from Ki of the mixture of 4 diastereoisomers; for affinity difference / power factor relative to Cpp-Ala-Pro-Phe-pAb: for the expected single diastereoisomer versus known inhibitor (Ki 7 nM).
Experimental: Incubation takes place for 1 hour at 37° C. of 2 nmole (20 μmole/l) of neurotensin, which is a known endopeptidase 24-15 substrate, with 7 μg of purified endopeptidase 24-15 in a final volume of 100 μl of tris-HCl buffer, 50 nM, pH 7.5, in the absence of an inhibitor (control) or in the presence of the peptide tested at concentrations from 10^-11 to 10^-7 mole/l. After 1 hour incubation analysis takes place of the solutions by HPLC. On the basis of this analysis the inhibition constant Ki of the tested peptide is determined.

The target of assay [2] is endopeptidase 24-16 (Homo sapiens, UniProt Q9BYT8). Nature of the assay: Inhibition of neurotensin degradation by purified endopeptidase 24-16 (HPLC), inhibition constant Ki. The conditions noted are these: neurotensin 20 μmole/l, 1 hour at 30° C., tris-HCl pH 7.5. Type of assay: biochemical. As for the experimental part:
This example studies the inhibiting effect of the peptides of the invention with respect to endopeptidase 24-16.
To this end, incubation takes place for 1 hour at 30° C. of 2 nmole (20 μmole/l) of neurotensin, which is a known endopeptidase 24-16 substrate with 8 μg of endopeptidase 24-16 purified in a final volume of 100 μl of tris-HCl buffer, 50 mM, pH 7.5, in the absence of peptide (control) or in the presence of the peptide tested at concentrations from 10^-11 to 10^-7 mole/l. After 1 hour of incubation analysis takes place of the solutions by HPLC and the inhibition constant Ki of the tested peptide is determined.

The target of assay [3] is endopeptidase 24-15 of the rat (Rattus norvegicus, UniProt P24155). The conditions noted are these: as described by Dando et al; read-out: inhibition constant Ki with respect to endopeptidase 24-15 of the rat; cited from earlier work.
endopeptidase 24-15 of the rat, sequence (P24155 whole entry): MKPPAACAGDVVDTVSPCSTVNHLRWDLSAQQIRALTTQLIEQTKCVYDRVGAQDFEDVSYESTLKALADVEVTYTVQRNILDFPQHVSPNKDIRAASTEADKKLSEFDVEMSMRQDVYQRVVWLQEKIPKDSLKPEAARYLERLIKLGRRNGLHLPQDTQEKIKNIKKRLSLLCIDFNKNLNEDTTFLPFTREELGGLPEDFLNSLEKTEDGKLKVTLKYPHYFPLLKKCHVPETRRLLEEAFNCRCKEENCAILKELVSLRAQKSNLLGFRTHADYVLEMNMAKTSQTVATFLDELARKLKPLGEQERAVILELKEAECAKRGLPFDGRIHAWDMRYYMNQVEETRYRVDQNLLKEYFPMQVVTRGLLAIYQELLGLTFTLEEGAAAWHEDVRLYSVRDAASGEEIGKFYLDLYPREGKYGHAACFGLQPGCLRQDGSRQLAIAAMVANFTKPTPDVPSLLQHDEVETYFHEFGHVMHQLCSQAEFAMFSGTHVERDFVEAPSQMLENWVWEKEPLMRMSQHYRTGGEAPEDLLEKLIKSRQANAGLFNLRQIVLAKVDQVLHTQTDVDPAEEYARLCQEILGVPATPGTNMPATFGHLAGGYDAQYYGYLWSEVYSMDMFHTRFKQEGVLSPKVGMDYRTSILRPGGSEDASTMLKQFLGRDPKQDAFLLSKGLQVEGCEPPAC

endopeptidase 24-16, sequence (Q9BYT8 38-704): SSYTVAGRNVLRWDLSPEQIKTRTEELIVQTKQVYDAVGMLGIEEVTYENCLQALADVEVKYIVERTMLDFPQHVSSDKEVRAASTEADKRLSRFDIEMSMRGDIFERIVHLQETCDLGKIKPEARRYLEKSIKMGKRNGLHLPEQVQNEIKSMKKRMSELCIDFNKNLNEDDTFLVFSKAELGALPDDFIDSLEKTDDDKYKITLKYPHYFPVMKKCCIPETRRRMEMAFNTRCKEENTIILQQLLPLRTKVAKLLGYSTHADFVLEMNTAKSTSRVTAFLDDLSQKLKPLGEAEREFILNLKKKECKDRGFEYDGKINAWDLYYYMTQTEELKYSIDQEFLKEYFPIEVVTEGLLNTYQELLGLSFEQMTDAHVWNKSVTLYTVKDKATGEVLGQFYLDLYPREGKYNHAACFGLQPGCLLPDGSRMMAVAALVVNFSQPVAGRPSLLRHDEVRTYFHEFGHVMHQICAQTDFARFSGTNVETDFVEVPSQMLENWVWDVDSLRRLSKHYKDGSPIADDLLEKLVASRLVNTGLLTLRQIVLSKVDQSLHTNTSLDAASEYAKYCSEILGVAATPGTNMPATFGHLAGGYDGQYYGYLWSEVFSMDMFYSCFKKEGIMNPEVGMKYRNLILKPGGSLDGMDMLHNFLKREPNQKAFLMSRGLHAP
endopeptidase 24-15, sequence (P24155 whole entry): as the sequence (P24155 whole entry) above

Regarding `N=C(N)NCCC[C@H](NC(=O)CCP(=O)(O)C(Cc1ccccc1)NC(=O)OCc1ccccc1)C(=O)N[C@@H](CC(=O)O)C(=O)O` (mixture of isomers) [compound 20, Z--Phe .PSI. (PO2 CH2)Gly--Arg--Asp], the inhibition constant (Ki) amounted to 352 nM in assay [1] and 20400 nM in assay [2]. Moreover, in assay [1], the “SELECTIVITY (ratio Ki24-16 /Ki24-15)” value was determined as 58.

As for `N=C(N)NCCC[C@H](NC(=O)CCP(=O)(O)C(Cc1ccccc1)NC(=O)OCc1ccccc1)C(=O)N1CCC[C@H]1C(=O)O` (mixture of isomers) [compound 21, Z--Phe .PSI. (PO2 CH2)Gly--Arg--Pro], in assay [1], affinity was put at a Ki of 3520 nM and the “SELECTIVITY (ratio Ki24-16 /Ki24-15)” value was determined as 10. The inhibition constant (Ki) in assay [2] worked out at 36700 nM.

As for `CSCC[C@H](NC(=O)[C@H](CCCCN)NC(=O)C(C)CP(=O)(O)C(Cc1ccccc1)NC(=O)OCc1ccccc1)C(=O)O` (mixture of isomers) [compound 22, Z--Phe .PSI. (PO2 CH2)Ala--Lys--Met], in assay [1], the Ki was found to be 0.115 nM and the “SELECTIVITY (ratio Ki24-16 /Ki24-15)” value was 1957. Also, in assay [2], the Ki turned out to be 225 nM.

As to `CCCC[C@H](NC(=O)[C@H](CCCCN)NC(=O)C(C)CP(=O)(O)C(Cc1ccccc1)NC(=O)OCc1ccccc1)C(=O)O` (mixture of isomers) [compound 23, Z--Phe .PSI. (PO2 CH2)Ala--Lys--Nle], in assay [1], the Ki was found to be 0.63 nM and the “SELECTIVITY (ratio Ki24-16 /Ki24-15)” value is 257. The inhibitory constant (Ki) in assay [2] was determined as 162 nM.

With `CC(CP(=O)(O)C(Cc1ccccc1)NC(=O)OCc1ccccc1)C(=O)N[C@@H](CCCCN)C(=O)N[C@@H](C)C(=O)O` (mixture of isomers) [compound 24, Z--Phe .PSI. (PO2 CH2)Ala--Lys--Ala], in assay [1], the inhibition constant Ki was found to be 0.83 nM and the “SELECTIVITY (ratio Ki24-16 /Ki24-15)” value amounted to 525. In addition, the affinity in assay [2] corresponds to a Ki of 436 nM.

Take `CC(CP(=O)(O)C(Cc1ccccc1)NC(=O)OCc1ccccc1)C(=O)N[C@@H](CCCCN)C(=O)N[C@@H](Cc1ccccc1)C(=O)O` (mixture of isomers) [compound 25, Z--Phe .PSI. (PO2 CH2)Ala--Lys--Phe]: in assay [1], the Ki was 1 nM and the “SELECTIVITY (ratio Ki24-16 /Ki24-15)” value amounted to 1652. In addition, in assay [2], the Ki came to 1650 nM.

As for `CC(C)C[C@H](NC(=O)[C@H](CCCCN)NC(=O)C(C)CP(=O)(O)C(Cc1ccccc1)NC(=O)OCc1ccccc1)C(=O)O` (mixture of isomers) [compound 26, Z--Phe .PSI. (PO2 CH2)Ala--Lys--Leu], the inhibitory constant (Ki) in assay [1] is 1.82 nM; in assay [2], 893 nM. In addition, the “SELECTIVITY (ratio Ki24-16 /Ki24-15)” value in assay [1] was 491.

In the case of `CC[C@H](C)[C@H](NC(=O)[C@H](CCCCN)NC(=O)C(C)CP(=O)(O)C(Cc1ccccc1)NC(=O)OCc1ccccc1)C(=O)O` (mixture of isomers) [compound 27, Z--Phe .PSI. (PO2 CH2)Ala--Lys--Ile], in assay [1], the Ki turned out to be 1.94 nM and the “SELECTIVITY (ratio Ki24-16 /Ki24-15)” value turned out to be 652. This molecule also came in with a Ki in assay [2] of 1260 nM.

On to `CSCC[C@H](NC(=O)[C@H](CCCNC(=N)N)NC(=O)C(C)CP(=O)(O)C(Cc1ccccc1)NC(=O)OCc1ccccc1)C(=O)O` (mixture of isomers) [compound 42, Z--Phe .PSI. (PO2 CH2)Ala--Arg--Met], for which, in assay [1], the Ki stood at 0.067 nM, the “Ki expected for one of the diastereoisomers of the mixture” value is recorded as “approximately 15 pM”, the “affinity difference / power factor relative to Cpp-Ala-Pro-Phe-pAb” value was found to be 440 and the “SELECTIVITY (ratio Ki24-16 /Ki24-15)” value turned out to be 1312. The molecule further yielded an inhibition constant Ki in assay [2] of 88 nM.

Regarding `CC(CP(=O)(O)C(Cc1ccccc1)NC(=O)OCc1ccccc1)C(=O)N[C@@H](CCCNC(=N)N)C(=O)N[C@@H](Cc1ccccc1)C(=O)O` (mixture of isomers) [compound 43, Z--Phe .PSI. (PO2 CH2)Ala--Arg--Phe], in assay [1], the affinity, expressed as Ki, was 0.158 nM; the “Ki expected for one of the diastereoisomers of the mixture” value is given as “approximately 40 pM”; the “affinity difference / power factor relative to Cpp-Ala-Pro-Phe-pAb” value is “approximately 175”; the “SELECTIVITY (ratio Ki24-16 /Ki24-15)” value stood at 3335. This molecule also showed a Ki in assay [2] of 527 nM.

Take `CC(C)CC(CP(=O)(O)C(Cc1ccccc1)NC(=O)OCc1ccccc1)C(=O)N[C@@H](CCCNC(=N)N)C(=O)N[C@@H](Cc1ccccc1)C(=O)O` (mixture of isomers) [compound 44, Z--Phe .PSI. (PO2 CH2)Leu--Arg--Phe]: the inhibition constant Ki in assay [1] came out at 14 nM; in assay [2], 2290 nM. The “SELECTIVITY (ratio Ki24-16 /Ki24-15)” value in assay [1] turned out to be 164.

With Cpp-Ala-Pro-Phe-pAb, the Ki in assay [3] was 7 nM.

By Ki is commonly meant a measure of affinity in units of concentration, obtained from inhibition or displacement.
